From PubChem BioAssay AID2060897 (Molecular Pharmacology Branch, DTP, NCI, 2025)

System: 966289-007-R4-J1-PDC complex spheroid viability
Experiment: Anticancer human tumor 966289-007-R4-J1-PDC patient-derived pancreatic adenocarcinoma cell line growth inhibition [RAS]
Conditions: for IC50: curve of first compound; for viability, T/C: stronger effect = lower value
From the text: RAS pathway inhibitors in Combinations in Complex Spheroids
A high-throughput screen of multi-cell type tumor spheroids was designed to identify active combinations of RAS pathway inhibitors and targeted small molecules. Complex spheroids include a stromal component modeled by human endothelial cells (HUVEC) and fibroblasts modeled by human mesenchymal stem cells (MSCs). The concentration ranges selected for each drug and investigational agent were based upon clinically achievable concentrations if the clinical Cmax of the agent was known.
Compounds. The drugs and investigational agents: abemaciclib (NSC768073), cobimetinib (NSC768068), divarasib (GDC6063, NSC841802), docetaxel (NSC628503), GDC-1971 (RLY-1971, NSC841576), gemcitabine (NSC613327), inavolisib (NSC800729), ipatasertib (NSC767898), KB-0742 (NSC834161), MRTX-1133 (NSC836407), osimertinib (NSC779217), RMC-4630 (NSC839698), RMC-6236 (NSC851965), RMC-6291 (NSC852671), Ro-3306 (NSC812927), sapanisertib (NSC764658), SN-38 (NSC673596), staurosporine (NSC755774), SY5609 (NSC837396), and tovorafenib (DAY101, NSC766906), were obtained from the National Cancer Institute (NCI) Developmental Therapeutics Program Chemical Repository. The FDA-approved anticancer drug set is available from the NCI Developmental Therapeutics Program. […] The stock solutions were prepared in dimethyl sulfoxide (DMSO, Sigma-Aldrich, St. Louis, MO, cat. D2650) at 800-fold the tested concentration and stored at -70 degrees C prior to their use. All drugs and investigational agents were tested over a range starting from a high concentration at or near the clinical Cmax and decreasing in half-log increments. If the clinical Cmax for an agent had not been determined, the highest concentration tested was 10 microM.
Cell Culture. All cells were maintained in an incubator at 37 degrees C and 5% CO2 with 95% humidity. The PDC lines were cultured according to standard operating procedures established by the NCI PDMR. All PDCs were thawed and cultured in Matrigel-coated flasks prepared with a working solution of 1X Ham's F-12 nutrient mix, without supplementation (Invitrogen, Waltham, MA, cat. 11765054), 100 U/mL penicillin-streptomycin (Invitrogen, cat. 15140122), and 2.5% Matrigel (Corning Inc., Corning, NY, cat. 354248) for the first three passages. The 362531-283-R-J2-PDC and 782815-120-R-J1-PDC lines were cultured in 6C/Colon 1B media, which includes advanced DMEM/F-12 (Thermo Fisher Scientific, cat. 12634028), 10 mM HEPES (Thermo Fisher Scientific, cat. 15630080), 1X GlutaMAX supplement (Thermo Fisher Scientific, cat. 35050061), 0.1 mg/mL primocin (InvivoGen, San Diego, CA, cat. ant-pm-2), 10% defined fetal bovine serum, heat inactivated (HyClone Laboratories Inc., Logan, UT, cat. SH30070.03HI), 50% L-WRN conditioned media (ATCC, cat. CRL-3276), 1.25 mM N-Acetyl-L-cysteine (Sigma-Aldrich, cat. A9165), 10 mM nicotinamide (Sigma-Aldrich, cat. N0636), 1X B-27 supplement (Thermo Fisher Scientific, cat. 17504044), 1X N-2 supplement (Thermo Fisher Scientific, cat. 17502048), 50 ng/mL human EGF (Thermo Fisher Scientific, cat. PHG0311), and 10 microM Y-27632 dihydrochloride (Tocris Bioscience, cat. 1254). The K12877-001-R-J1-PDC line was cultured in 6I media, which includes all 6C/Colon 1B media plus 10 ng/mL human FGF-10 (PeproTech, cat. 100-26), 1 ng/mL human FGF-2 (PeproTech, cat. 100-18B), 1 µM prostaglandin E2 (Tocris Bioscience, cat. 2296), […] hydrocortisone (Sigma-Aldrich, cat. H4001), and […] bovine insulin (Sigma-Aldrich, cat. I6634). The K86415-001-R-J1-PDC line was cultured in 6D media, which includes all 6C/Colon 1B media components minus the L-WRN conditioned media. The 485176-168-R4-J1-PDC was cultured in PANC media, which includes all 6C/Colon 1B media plus 100 ng/mL human FGF-10 (PeproTech, cat. 100-26), 500 nM SB-431542 (Selleckchem, cat. S1067), and 10 nM gastrin (Tocris Bioscience, cat. 3006). […]

[1] = second compound 0.000949 µM, first compound 0.00316 µM
[2] = second compound 0.000949 µM, first compound 0.01 µM
[3] = second compound 0.000949 µM, first compound 0.0316 µM
[4] = second compound 0.000949 µM, first compound 0.1 µM
[5] = second compound 0.000949 µM, first compound 0.316 µM
[6] = second compound 0.000949 µM, first compound 1 µM
[7] = second compound 0.003 µM, first compound 0.00316 µM
[8] = second compound 0.003 µM, first compound 0.01 µM
[9] = second compound 0.003 µM, first compound 0.0316 µM
[10] = second compound 0.003 µM, first compound 0.1 µM
[11] = second compound 0.003 µM, first compound 0.316 µM
[12] = second compound 0.003 µM, first compound 1 µM
[13] = second compound 0.00949 µM, first compound 0.00316 µM
[14] = second compound 0.00949 µM, first compound 0.01 µM
[15] = second compound 0.00949 µM, first compound 0.0316 µM
[16] = second compound 0.00949 µM, first compound 0.1 µM
[17] = second compound 0.00949 µM, first compound 0.316 µM
[18] = second compound 0.00949 µM, first compound 1 µM
[19] = second compound 0.03 µM, first compound 0.00316 µM
[20] = second compound 0.03 µM, first compound 0.01 µM
[21] = second compound 0.03 µM, first compound 0.0316 µM
[22] = second compound 0.03 µM, first compound 0.1 µM
[23] = second compound 0.03 µM, first compound 0.316 µM
[24] = second compound 0.03 µM, first compound 1 µM
[25] = second compound 0.0949 µM, first compound 0.00316 µM
[26] = second compound 0.0949 µM, first compound 0.01 µM
[27] = second compound 0.0949 µM, first compound 0.0316 µM
[28] = second compound 0.0949 µM, first compound 0.1 µM
[29] = second compound 0.0949 µM, first compound 0.316 µM
[30] = second compound 0.0949 µM, first compound 1 µM
[31] = second compound 0.3 µM, first compound 0.00316 µM
[32] = second compound 0.3 µM, first compound 0.01 µM
[33] = second compound 0.3 µM, first compound 0.0316 µM
[34] = second compound 0.3 µM, first compound 0.1 µM
[35] = second compound 0.3 µM, first compound 0.316 µM
[36] = second compound 0.3 µM, first compound 1 µM
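Further: spheroids exposed to agents for one week before readout.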
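Wherever viability, T/C is given: percent viability relative to DMSO vehicle control wells as 100%.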

O=C(c1ccc(F)c(F)c1Nc1ccc(I)cc1F)N1CC(O)([C@@H]2CCCCN2)C1 + CCn1c(-c2cccnc2C(C)OC)c2c3cc(ccc31)N1CCOC(CC(NC(=O)C(C(C)C)N(C)C(=O)C3(F)CCN(C(=O)C#CC(C)(C)N(C)C)CC3)C(=O)N3CCCC(N3)C(=O)OCC(C)(C)C2)C1
IC50 (second compound 0.000949 µM): > 1000 nM | IC50 (second compound 0.003 µM): > 1000 nM | IC50 (second compound 0.00949 µM): 940 nM | IC50 (second compound 0.03 µM): 848 nM | IC50 (second compound 0.0949 µM): > 1000 nM | IC50 (second compound 0.3 µM): 661 nM | viability, T/C [1]: 95.6% | viability, T/C [2]: 94.9% | viability, T/C [3]: 102% | viability, T/C [4]: 84.4% | viability, T/C [5]: 78.9% | viability, T/C [6]: 60.3% | viability, T/C [7]: 76.5% | viability, T/C [8]: 82.9% | viability, T/C [9]: 99.5% | viability, T/C [10]: 79.5% | viability, T/C [11]: 86.1% | viability, T/C [12]: 59.4% | viability, T/C [13]: 79.6% | viability, T/C [14]: 84.6% | viability, T/C [15]: 85.2% | viability, T/C [16]: 89% | viability, T/C [17]: 83.9% | viability, T/C [18]: 48.1% | viability, T/C [19]: 72.8% | viability, T/C [20]: 86.5% | viability, T/C [21]: 101% | viability, T/C [22]: 74.1% | viability, T/C [23]: 84.1% | viability, T/C [24]: 44.3% | viability, T/C [25]: 88% | viability, T/C [26]: 83.3% | viability, T/C [27]: 99.1% | viability, T/C [28]: 82.5% | viability, T/C [29]: 72.6% | viability, T/C [30]: 56% | viability, T/C [31]: 89.4% | viability, T/C [32]: 78.5% | viability, T/C [33]: 84.2% | viability, T/C [34]: 82.9% | viability, T/C [35]: 62.9% | viability, T/C [36]: 42.8%

Nc1ccn(C2OC(CO)C(O)C2(F)F)c(=O)n1 (centres undefined) + CCn1c(-c2cccnc2C(C)OC)c2c3cc(ccc31)N1CCOC(CC(NC(=O)C(C(C)C)N(C)C(=O)C3(F)CCN(C(=O)C#CC(C)(C)N(C)C)CC3)C(=O)N3CCCC(N3)C(=O)OCC(C)(C)C2)C1
IC50 (second compound 0.000949 µM): 7.01 nM | IC50 (second compound 0.003 µM): 5.6 nM | IC50 (second compound 0.00949 µM): 4.48 nM | IC50 (second compound 0.03 µM): 4.23 nM | IC50 (second compound 0.0949 µM): 4.66 nM | IC50 (second compound 0.3 µM): 5.27 nM | viability, T/C [1]: 119% | viability, T/C [2]: 18.9% | viability, T/C [3]: 1.45% | viability, T/C [4]: 0.78% | viability, T/C [5]: 0.73% | viability, T/C [6]: 0.9% | viability, T/C [7]: 87.3% | viability, T/C [8]: 12.3% | viability, T/C [9]: 1.03% | viability, T/C [10]: 0.84% | viability, T/C [11]: 1.07% | viability, T/C [12]: 1.18% | viability, T/C [13]: 67.6% | viability, T/C [14]: 9.69% | viability, T/C [15]: 0.94% | viability, T/C [16]: 0.85% | viability, T/C [17]: 0.87% | viability, T/C [18]: 1.1% | viability, T/C [19]: 64% | viability, T/C [20]: 8.78% | viability, T/C [21]: 0.83% | viability, T/C [22]: 1.03% | viability, T/C [23]: 1.23% | viability, T/C [24]: 0.98% | viability, T/C [25]: 72.2% | viability, T/C [26]: 6.25% | viability, T/C [27]: 0.85% | viability, T/C [28]: 0.82% | viability, T/C [29]: 1.11% | viability, T/C [30]: 1.25% | viability, T/C [31]: 86.9% | viability, T/C [32]: 3.9% | viability, T/C [33]: 0.92% | viability, T/C [34]: 0.98% | viability, T/C [35]: 0.91% | viability, T/C [36]: 1.22%
